Results as given in PubChem BioAssay (NCI).
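Method: 48-hour compound exposure of cells in 96-well plates, five concentrations, linear interpolation of endpoints. At the GI50, growth is halved. TGI: total growth inhibition.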

Columns and labels:
Assay in all cases: NCI-60 cell line screen, 48 h
[1] = tested on: A549 NSCLC
[2] = tested on: COLO 205 colon
[3] = tested on: HL-60(TB) leukemia
[4] = tested on: HOP-92 NSCLC
[5] = tested on: HS 578T breast
[6] = tested on: LOX IMVI melanoma
[7] = tested on: M14 melanoma
[8] = tested on: OVCAR-5 ovarian
[9] = tested on: SK-OV-3 ovarian
[10] = tested on: SW-620 colon

SMILES	GI50 [1]	TGI [1]	GI50 [2]	TGI [2]	GI50 [3]	TGI [3]	GI50 [4]	TGI [4]	GI50 [5]	TGI [5]	GI50 [6]	TGI [6]	GI50 [7]	TGI [7]	GI50 [8]	TGI [8]	GI50 [9]	TGI [9]	GI50 [10]	TGI [10]
Fc1ccc(-c2ncn(C3CCNCC3)c2-c2ccnc(Oc3ccc4c(c3)OCO4)n2)cc1	16.4 µM	> 25 µM	9.25 µM	> 25 µM	> 21.3 µM	> 25 µM	5.21 µM	> 25 µM	> 12.7 µM	> 25 µM	12.3 µM	> 25 µM	10.4 µM	> 25 µM	> 25 µM	> 25 µM	14.9 µM	> 25 µM	> 25 µM	> 25 µM
O=S(=O)(O)O		1870 µM		2210 µM		1300 µM		2010 µM		2240 µM		542 µM		1580 µM		1700 µM		2650 µM		1030 µM
Oc1c(C(Nc2ccccc2Br)c2ccccc2)ccc2cccnc12 (configuration not stated)	2.46 µM	> 100 µM	2.75 µM	36.6 µM	2.34 µM	6.25 µM	6.51 µM	75.9 µM	10.7 µM	> 100 µM	1.91 µM	13.6 µM	2.3 µM	8.47 µM	5.34 µM	51.7 µM	3.24 µM	78.5 µM	2.63 µM	25.3 µM
CCC(=O)N1C/C(=C/c2ccc(Cl)cc2)C(=O)/C(=C/c2ccc(Cl)cc2)C1	0.868 µM	4.14 µM	0.757 µM	1.95 µM	1.25 µM	5.03 µM	1.66 µM	4.18 µM	2.06 µM	6.05 µM	0.161 µM	0.354 µM	0.992 µM	2.6 µM	1.48 µM	3 µM	1.83 µM	3.76 µM	0.287 µM	0.94 µM
OCCCCC#Cc1ccccc1C#Cc1ccc(O)cc1	15.8 µM	30.8 µM	21.6 µM	45.9 µM	18.3 µM	40.5 µM	17.4 µM	36.2 µM	26.2 µM	77.1 µM	13.6 µM	27.7 µM	17.8 µM	36 µM	16.5 µM	35.2 µM	20 µM	40.2 µM	18.2 µM	37.1 µM
CC1=CC2C(C(O)CC3(C)C2CC(C)C32OCOC23COCO3)C2(C)C/C(=C/O)C(=O)C=C12 (configuration not stated)	3.02 µM	10.7 µM	1.97 µM	3.47 µM	2.1 µM	4.63 µM	1.78 µM	3.45 µM	2.28 µM	5.72 µM	1.75 µM	3.31 µM	1.66 µM	3.51 µM	1.98 µM	3.92 µM	2.73 µM	6.42 µM	1.65 µM	3.32 µM
COc1ccc(/C=C(/c2ccccc2)[N+](=O)[O-])c(OC)c1	2.32 µM	6.66 µM	2.04 µM	4.28 µM	1.15 µM	5.25 µM	1.26 µM	2.76 µM	2.2 µM	6.65 µM	0.399 µM	1.63 µM	1.48 µM	3.51 µM	1.92 µM	3.74 µM	3.1 µM	9.57 µM	1.73 µM	4.08 µM
COc1ccccc1/C=C1\COc2ccc(-c3ccccc3)cc2C1=O	2.61 µM	8.9 µM	3.57 µM	13 µM	1.86 µM	> 100 µM	4.18 µM	> 100 µM	2.75 µM	7.29 µM	2.97 µM	10.7 µM	4 µM	32.2 µM	5.29 µM	21.1 µM	3.7 µM	> 100 µM	2.39 µM	5.6 µM
CN(C)Cc1ccc(-c2cc3onc(-c4ccccc4)c3c(=O)n2C)cc1		36.9 µM		41.1 µM		4.56 µM		87.6 µM		46.2 µM		49.8 µM		30.7 µM		> 100 µM		> 100 µM		65.1 µM
C=C1C(=O)O[C@H]2[C@H]1CC/C(COC(=O)CCCCCC(=O)OC/C1=C/CC[C@@]3(C)O[C@H]3[C@H]3OC(=O)C(=C)[C@@H]3CC1)=C\CC[C@@]1(C)O[C@@H]21	10.4 µM	23.8 µM	1.46 µM	3.32 µM	0.694 µM	3.66 µM	1.7 µM	4.12 µM	2.72 µM	22 µM	1.47 µM	2.88 µM	2.68 µM	8.29 µM	1.97 µM	4.17 µM	12 µM	31 µM	1.35 µM	3.14 µM
CCCCNNC(=O)c1ccc(Br)cc1	5.34 µM	> 50 µM	2.21 µM	9.92 µM	2.24 µM	> 50 µM	1.46 µM	11.4 µM	4.27 µM	> 50 µM	3.29 µM	12.2 µM	2.46 µM	> 50 µM	1.01 µM	> 15.3 µM	8.54 µM	> 50 µM	2.17 µM	> 50 µM
N#Cc1nc(-c2ccc(F)cc2)oc1S(=O)(=O)N1CCCCC1	6.9 µM	27.1 µM	2.07 µM	4.2 µM	2.54 µM	7.02 µM	1.76 µM	3.37 µM	2.24 µM	5.74 µM	1.19 µM	2.69 µM	1.77 µM	3.87 µM	1.71 µM	3.32 µM	24.3 µM	91.2 µM	1.89 µM	4.11 µM
O=C(Oc1cccc(Cl)c1)c1ccccc1Nc1ccnc(C(F)(F)F)c1	18.1 µM	55.1 µM			12.8 µM	> 100 µM	8.74 µM	32.1 µM	20.8 µM	61 µM			1.77 µM	4.46 µM	13.8 µM	57 µM			4.33 µM	23.3 µM
COc1ccc([C@H](CC(=O)O)N2CCN(CCCc3ccc4c(n3)NCCC4)C2=O)cn1	3.07 µM	> 30.3 µM	> 100 µM	> 100 µM	> 100 µM	> 100 µM	0.0348 µM	0.159 µM	7.15 µM	> 100 µM	0.715 µM	4.23 µM	> 100 µM	> 100 µM	0.403 µM	> 100 µM	> 100 µM	> 100 µM		> 100 µM
CN(C)C(=O)Nc1nc2cc(Cl)c(Cl)cc2[nH]1	0.704 µM	> 25.4 µM	0.661 µM	5.08 µM	0.241 µM		16.1 µM	> 100 µM	1.26 µM	> 55.1 µM	1.87 µM	> 100 µM	0.603 µM		19.8 µM	> 100 µM	1.09 µM	> 56.6 µM	0.476 µM	> 100 µM
C/C(=C\c1ccn(-c2ccccc2N)n1)[C@@H]1C[C@@H]2O[C@]2(C)CCC[C@H](C)[C@H](O)[C@@H](C)C(=O)C(C)(C)[C@@H](O)CC(=O)O1	0.0372 µM	> 50 µM	0.0212 µM	0.641 µM	0.0329 µM	0.228 µM	0.146 µM	> 50 µM	0.0658 µM	10 µM	0.0331 µM	> 50 µM			0.102 µM	> 40.9 µM	0.081 µM	> 50 µM	0.0245 µM	> 50 µM
CCCCCCCCCCCC1=NC(C)(C)CN1C(C)(C)CO	6.53 µM	19.6 µM	1.59 µM	3 µM	1.77 µM	4.66 µM	2.31 µM	7.49 µM	1.45 µM	3.48 µM	1.91 µM	3.79 µM	1.79 µM	3.4 µM	3.61 µM	15 µM	3.8 µM	12.4 µM	1.67 µM	3.08 µM
O=c1c2c([nH]c3nccn13)CCC2		> 10 µM		> 10 µM		> 10 µM		> 10 µM		> 10 µM		> 10 µM		> 10 µM		> 10 µM		> 10 µM		> 10 µM
O=[N+]([O-])c1cccc(/C=N/NC2=CS(=O)(=O)C=C2)c1		> 100 µM		> 100 µM		> 100 µM		> 100 µM		> 100 µM		> 100 µM		> 100 µM		> 100 µM		> 100 µM		> 100 µM
CN(C)c1ccc(Nc2c3ccccc3nc3ccccc23)cc1	0.425 µM	1.9 µM	0.82 µM	2.16 µM	0.84 µM	3.61 µM	0.622 µM	3.84 µM	1.65 µM	9.47 µM	0.585 µM	2.26 µM	1.22 µM	2.61 µM	1.54 µM	6.72 µM	1.27 µM	3.77 µM	0.665 µM	3.67 µM
COC(=O)c1cc(-c2ccccc2)[nH]c1N/N=C/c1c(Cl)cccc1Cl	0.501 µM	> 44.1 µM	0.301 µM	> 40.1 µM	0.289 µM		0.609 µM	17.5 µM	0.221 µM	3.5 µM	0.602 µM	17.7 µM	0.24 µM	1.37 µM	0.732 µM	16.7 µM	0.39 µM	3.26 µM	0.279 µM	> 38.8 µM
Nc1ccn(C2CC(F)C(CO)O2)c(=O)n1 (configuration not stated)	> 100 µM	> 100 µM	> 100 µM	> 100 µM	> 100 µM	> 100 µM	> 100 µM	> 100 µM	> 100 µM	> 100 µM	> 100 µM	> 100 µM	> 100 µM	> 100 µM	> 100 µM	> 100 µM	> 100 µM	> 100 µM		
c1ccc(-c2nn3c(c2-c2ccnc4cc(OCCN5CCOCC5)ccc24)CCC3)nc1	43.8 µM	> 100 µM	41.6 µM	> 100 µM	> 100 µM	> 100 µM	> 68.9 µM	> 100 µM	> 100 µM	> 100 µM	> 45.6 µM	> 100 µM	70.8 µM	> 100 µM	72.1 µM	> 100 µM	> 100 µM	> 100 µM	73.2 µM	> 100 µM
CCOc1ccc2c(-c3ccnc(Nc4cc(OC)cc(C(F)(F)F)c4)n3)cnn2n1	> 14.7 µM	> 25 µM	> 25 µM	> 25 µM	> 25 µM	> 25 µM			> 17.4 µM	> 25 µM	15.7 µM	> 25 µM	> 25 µM	> 25 µM	> 25 µM	> 25 µM	> 25 µM	> 25 µM	13 µM	> 25 µM
CN1C(=O)c2ccc3ccccc3c2C1=O		> 100 µM		> 100 µM		> 100 µM		> 100 µM		> 100 µM				> 100 µM		> 100 µM		> 100 µM		> 100 µM
O=C(O)C(Cc1cnc[nH]1)N1C(=O)c2ccccc2C1=O (configuration not stated)		> 100 µM		> 100 µM				> 100 µM		> 100 µM		> 100 µM		> 100 µM		> 100 µM				> 100 µM
O=C(NCCN1CCOCC1)OCc1nc2nc(Cl)nc(N3CCOCC3)c2[nH]1	9.33 µM	> 100 µM	> 100 µM	> 100 µM	1.61 µM	6.83 µM	1.41 µM	> 100 µM	2.85 µM	> 100 µM	0.382 µM	> 100 µM			4.42 µM	> 100 µM	5.28 µM	> 100 µM	2.68 µM	> 100 µM
COc1ccc(-c2cc(=O)n(-c3nc4ccccc4[nH]3)[nH]2)cc1OC	4.72 µM	81.9 µM	35.8 µM	> 100 µM	3.59 µM	19.6 µM			4 µM	66.6 µM	6.73 µM	> 100 µM	6.74 µM	> 100 µM	28.2 µM	> 100 µM	35.3 µM	> 100 µM	3.41 µM	> 100 µM
